Reference: patent US8394971B2, “Indole derivatives as selective androgen receptor modulators (SARMS)” (Janssen Pharmaceutica N.V., priority 2004, dated 2013)
Several values for one entry are separate records, joined by “and”; a condition that tells them apart may be missing. Identical values can stand only once.

What was measured:
[1] = molecular target: T1, androgen receptor (adenovirus AdEasy+rAR in COS-7 cells) (Rattus norvegicus, UniProt P15207); assay: COS-7 Whole-Cell Androgen Receptor Binding Assay, Adenovirus Transduction; details: COS binding; 3000 nM unless otherwise noted
T1 construct: expressed in transfected cells
T1 sequence (P15207 1-902): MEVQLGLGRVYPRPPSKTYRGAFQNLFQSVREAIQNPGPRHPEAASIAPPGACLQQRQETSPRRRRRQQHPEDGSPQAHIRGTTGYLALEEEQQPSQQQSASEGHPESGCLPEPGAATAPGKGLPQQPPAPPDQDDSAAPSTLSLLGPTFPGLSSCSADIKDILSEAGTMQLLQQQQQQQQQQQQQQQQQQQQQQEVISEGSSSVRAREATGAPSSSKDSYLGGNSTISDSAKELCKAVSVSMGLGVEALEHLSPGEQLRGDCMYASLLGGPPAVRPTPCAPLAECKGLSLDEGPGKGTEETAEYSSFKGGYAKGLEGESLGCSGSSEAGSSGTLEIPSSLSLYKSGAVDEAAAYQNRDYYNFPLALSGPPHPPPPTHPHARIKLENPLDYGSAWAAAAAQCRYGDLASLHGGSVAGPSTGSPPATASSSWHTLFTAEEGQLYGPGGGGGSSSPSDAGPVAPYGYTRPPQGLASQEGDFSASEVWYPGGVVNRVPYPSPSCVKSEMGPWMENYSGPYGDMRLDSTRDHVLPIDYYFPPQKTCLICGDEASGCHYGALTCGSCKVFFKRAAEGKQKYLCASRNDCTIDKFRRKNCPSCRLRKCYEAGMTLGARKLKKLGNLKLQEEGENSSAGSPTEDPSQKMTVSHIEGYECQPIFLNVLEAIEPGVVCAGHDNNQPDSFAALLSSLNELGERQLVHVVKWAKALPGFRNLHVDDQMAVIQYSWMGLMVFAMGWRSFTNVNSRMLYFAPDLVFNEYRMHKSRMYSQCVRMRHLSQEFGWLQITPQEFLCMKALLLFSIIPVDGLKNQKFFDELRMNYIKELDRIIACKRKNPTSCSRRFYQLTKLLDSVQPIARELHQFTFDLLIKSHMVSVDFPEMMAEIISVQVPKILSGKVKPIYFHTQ
Description: COS-7 cells were plated in 96-well plates at 20,000 cells per well, in a solution of DMEM/F12 (GIBCO) containing 10% (v/v) charcoal-treated fetal bovine serum (Hyclone) and lacking phenol red. The cells were then incubated overnight at 37° C. in 5% (v/v) humidified CO2.
Test compound solutions were prepared by diluting the test compound in 100% (v/v) DMSO, if necessary.
Next, 1 mL of DMEM/F12 lacking phenol red was pipetted into each of the wells of a 2-mL 96-well assay block. […] The wells were carefully mixed by pipette.
In a 15 mL or 50 mL sterile centrifuge tube, a dilution in DMEM/F12 of the adenovirus AdEasy+rAR at a moi of 1:50 per well was prepared.
The medium was removed from the 96-well plates by inversion and the plates dried very briefly, inverted, on a sterile towel. As soon as possible after medium removal, 40 μL of the diluted test compound was added to each well, in duplicate. […] The plates were then incubated for 48 hours at 37° C. in 5% (v/v) humidified CO2.
The medium was removed from the above incubated plates by inversion and dried. Each well was then washed with 0.35 mL of 1×PBS. The PBS was then removed from the plates by inversion and the plates dried.
To each well was then added 50 μL of 0.5% (v/v) Triton X-100 (Sigma) in 1×PBS and the plates placed on a rotary shaker for 5 min. The contents of each well were then transferred to an OptiPlate-96 (Packard) scintillation plate. To each well was then added 0.2 mL of Microscint-20 (Packard) and the wells counted on a TopCount (Packard).
[…] Counts per well were measured and percents of inhibition determined. […] Counts per well were measured and IC50s determined by linear regression.

[2] = molecular target: T2, androgen receptor (adenovirus AdEasy+rAR in L929 cells) (Rattus norvegicus, UniProt P15207); assay: L929 Androgen Receptor Functional Assay, Adenovirus Transduction; format: cell-based; details: for % Activity: L929 agonist testing; for inhibition at 3 µM: L929, L929 antagonist testing with R1881
T2 construct: expressed in transfected cells
T2 sequence (P15207 1-902): T1 sequence (P15207 1-902)
Description: L929 cells were plated in 96-well plates at 20,000 cells per well, in DMEM/F12 (GIBCO) containing 10% (v/v) charcoal-treated fetal bovine serum (Hyclone) and lacking phenol red. The plates were then incubated overnight at 37° C. in 5% (v/v) humidified CO2.
Test compound dilutions were prepared in 100% (v/v) DMSO, if necessary. Each dilution was made to 1250× the final desired assay concentration.
First, 2 mL of DMEM/F12 lacking phenol red was pipetted into the wells of a 2-mL 96-well assay block. Next, 4 μL of the 1250× test compound dilutions were pipetted into each well of the assay block. The mixtures within the well were then carefully mixed by pipette.
In a 15 mL or 50 mL sterile centrifuge tube, a 2.5 nM (2.5×) dilution of R1881 (methyl-trienolone) in DMEM/F12 lacking phenol red was prepared.
In a second 15 mL or 50 mL centrifuge tube a solution containing an equal volume of DMEM to the first and an equal volume of 100% (v/v) DMSO to the volume of R1881 used in the first tube was prepared.
In a 15 mL or 50 mL sterile centrifuge tube, a dilution in DMEM/F12 of the adenovirus AdEasy+rAR at an moi of 1:500 per well was prepared.
The medium was removed from the 96-well plates by inversion and dried, inverted, very briefly. As soon as possible after medium removal, 40 μL of the diluted unlabeled test compound was added to each well, in duplicate. To each well designated for antagonist testing was added 40 μL of the 2.5 nM R1881 dilution to the wells for antagonist testing. To each well designated for agonist testing was added 40 μL of the DMSO dilution. Then 20 μL of the diluted adenovirus were added to all wells. The plates were incubated for 48 hours at 37° C. in 5% (v/v) humidified CO2.
To each well was added 100 μL of Steady-Glo luciferase assay substrate (Promega) and the plates were placed on a rotary shaker for 1 min. The plates were then incubated at room temperature in the dark for one hour. The contents of each well were then transferred to a white microtiter plate (Packard) and read on a Luminoskan Ascent (Thermo Lab Systems).
L929 AR percent activity was determined by testing dilutions of the test compound using a concentration of 3000 nM unless otherwise noted. L929 percent inhibition was determined by testing dilutions of the test compound using a concentration of 3000 nM. […] Luciferase activity per well were measured and EC50s and IC50s determined by linear regression.

[3] = tested on: testosterone-enhanced ventral prostate and seminal vesicle weights in castrated male Sprague Dawley rats; assay: Ventral Prostate and Seminal Vesicle Weight In Vivo Assay; parameters: species or system rat; details: immature castrated rats; once daily for five days, usually orally at 40 mg/kg, with testosterone propionate 2 mg/kg s.c.
Outline: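 Immature (~50 g) castrated Sprague Dawley rats dosed once daily for five days with compound (usually oral, 40 mg/kg, cyclodextrin or methylcellulose vehicle) plus testosterone propionate 2 mg/kg s.c. Wet ventral prostate and seminal vesicle weights taken on day six; activity judged by prostate weight or body-weight-adjusted % inhibition.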

SMILES | % Inhibition [1] | % Activity ([2]; 3000 nM) | active / inactive (inhibition of testosterone-enhanced prostate weight) [3] | inhibition at 3 µM ([2]; 3000 nM) | % Activity ([2]; 3000 nM, 3 µM) | % Activity ([2]; @ 8000 nM) | inhibition at 3 µM [1]
C[S+]([O-])CCC(C)(O)c1cc2cc([N+](=O)[O-])c(C(F)(F)F)cc2[nH]1 (mixture of isomers) [compound 50] | 7% | 2% | inactive | – | – | – | –
CCSCC(C)(O)c1cc2cc([N+](=O)[O-])c(C(F)(F)F)cc2[nH]1 (racemic) [compound 142] | 90% | – | active | 78% | 0% | – | –
CCSCC(C)(O)c1cc2cc([N+](=O)[O-])c(C(F)(F)F)cc2n1C (racemic) [compound 165] | 69% | – | active | – | 1% | – | –
CCSCC(C)(O)c1cc2cc(F)c(Cl)cc2[nH]1 (racemic) [compound 206] | −40% | 5% | active | – | – | – | –
CCSCC(C)(O)c1cc2cc(C#N)c(C(F)(F)F)cc2[nH]1 (single isomer, unassigned) [Compound #217, 2-(2-Ethylsulfanyl-1-hydroxy-1-methyl-ethyl)-6-trifluoromethyl-1H-indole-5-carbonitrile] | 38% and 69% | 5% | active | 87% | – | 0 @ 8000 nM % | –
CCS(=O)(=O)CC(C)(O)c1cc2cc(C#N)c(C(F)(F)F)cc2[nH]1 (single isomer, unassigned) [Compound #222, 2-(2-Ethanesulfonyl-1-hydroxy-1-methyl-ethyl)-6-trifluoromethyl-1H-indole-5-carbonitrile] | – | – | active | – | – | 0 @ 8000 nM % | 42%
CCSCC(C)(O)c1[nH]c2cc(C(F)(F)F)c(C#N)cc2c1C (single isomer, unassigned) [Compound #233, 2-(2-Ethylsulfanyl-1-hydroxy-1-methyl-ethyl)-3-methyl-6-trifluoromethyl-1H-indole-5-carbonitrile] | 95% and 81% | – | active | – | 0% | – | –
CCSCC(C)(O)c1[nH]c2cc(C(F)(F)F)c(C#N)cc2c1C (single isomer, unassigned) [Compound #234, 2-(2-Ethylsulfanyl-1-hydroxy-1-methyl-ethyl)-3-methyl-6-trifluoromethyl-1H-indole-5-carbonitrile] | 71% | – | inactive | – | −1% | – | –
CSCC(C)(O)c1cc2cc([N+](=O)[O-])c(C(F)(F)F)cc2[nH]1 (single isomer, unassigned) [compound 145] | 84.7% | – | – | – | 1% | – | –
CCSCC(C)(O)c1cc2cc([N+](=O)[O-])c(C(F)(F)F)cc2[nH]1 (single isomer, unassigned) [compound 149] | 63% and 78% | – | – | – | 2% | – | –
CCSCC(C)(O)c1cc2cc([N+](=O)[O-])c(C(F)(F)F)cc2[nH]1 (single isomer, unassigned) [compound 150] | 81% and 74% | – | – | – | – | 0 @ 8000 nM % | –
CC(O)(CSc1ccc(O)cc1)c1cc2cc(Cl)c(C(F)(F)F)cc2[nH]1 (stereo not shown) [compound 120] | – | −5% | – | – | – | – | 86%
CC(O)(CS(=O)(=O)c1ccc(O)cc1)c1cc2cc(Cl)c(C(F)(F)F)cc2[nH]1 (stereo not shown) [compound 121] | – | −4% | – | – | – | – | 72%
CC(O)(CSc1ccc([N+](=O)[O-])cc1)c1cc2cc(Cl)c(C(F)(F)F)cc2[nH]1 (stereo not shown) [compound 122] | – | 10% | – | – | – | – | 66%
COc1ccc(S(=O)(=O)CC(C)(O)c2cc3cc(Cl)c(C(F)(F)F)cc3n2S(C)(=O)=O)cc1 (stereo not shown) [compound 128] | – | −4% | – | – | – | – | 21%
CC(O)(CSc1ccc(C(=O)O)cc1)c1cc2cc(Cl)c(C(F)(F)F)cc2n1S(C)(=O)=O (stereo not shown) [compound 132] | – | −5% | – | – | – | – | 8.7%
CC(O)(CSc1ccc(C(=O)O)cc1)c1cc2cc(Cl)c(C(F)(F)F)cc2[nH]1 (stereo not shown) [compound 133] | – | −4% | – | – | – | – | 65%
CC(O)(CS(C)(=O)=O)c1cc2cc(Cl)c(C(F)(F)F)cc2n1S(C)(=O)=O (stereo not shown) [compound 137] | – | 0% | – | – | – | – | 73%
CC(O)(CS(C)(=O)=O)c1cc2cc([N+](=O)[O-])c(C(F)(F)F)cc2[nH]1 (stereo not shown) [compound 147] | 6.1% | 0% | – | – | – | – | –
CC(O)(CS(C)(=O)=O)c1cc2cc([N+](=O)[O-])c(C(F)(F)F)cc2[nH]1 (stereo not shown) [compound 148] | 32% | 0% | – | – | – | – | –
CCS(=O)(=O)CC(C)(O)c1cc2cc([N+](=O)[O-])c(C(F)(F)F)cc2[nH]1 (stereo not shown) [compound 151] | 55% | – | – | – | – | −1 @ 8000 nM % | –
CCSCC(C)(O)c1cc2cc(C#N)c(Cl)cc2[nH]1 (stereo not shown) [compound 225] | – | 1% | – | – | – | – | 82%
